Assay results published in patent US20060264330A1, “Agricultural agents containing copolymers” (priority 2003, published 2006).
Structures can show the parent of a compound that is named as a salt.

Tests used:
Assay type in all cases: in vivo
[1] = test system: common lambsquarters (CHEAL); test: Bentazone experiment, photosynthetic activity by fluorescence measurement (Fpc); conditions: sodium salt of bentazone 60 g ai/ha, adjuvant 0.25%, 1 DAT; Fpc drops from 100 to 0 with destruction of the plant
Protocol: (§1) The sodium salt of bentazone was applied as an aqueous solution with a concentration of 480 g/l. The application rate was 60 g of ai/ha. The mixture was applied to plants of the genus common lambsquarters (CHEAL) and wild buckwheat (POLCO). The adjuvants were added to the application solution at a concentration of 0.25%. The activity was determined by means of fluorescence measurement, where the factor Fpc is a measure of the photosynthetic activity. The destruction of the plant is associated with a drop in the Fpc value, starting from 100, down to 0.

wild buckwheat (POLCO) = test: as above; conditions: sodium salt of bentazone 60 g ai/ha, adjuvant 0.25%, 1 DAT; Fpc drops from 100 to 0 with destruction of the plant
Protocol: as §1

common chickweed (STEME) = test: Nicosulforon experiment, plant fresh weight; conditions: nicosulforon 200 g of ai/ha, adjuvant 0.25%, 14 DAT; untreated = 100
Protocol: (§2) Nicosulforon was applied as an aqueous solution with a concentration of 200 g of ai/ha. The adjuvants were added to the application solution at a concentration of 0.25%. The mixture was applied to plants of the genus velvetleaf (ABUTH), common lambsquarter (CHEAL) and common chickweed (STEME). The efficacy was determined by weighing the plant weight (fresh weight in g) 14 days post-application (14 DAT).

[2] = test system: common lambsquarter (CHEAL); test: Nicosulforon experiment, plant fresh weight; conditions: nicosulforon 200 g of ai/ha, adjuvant 0.25%, 14 DAT; untreated = 100
Protocol: as §2

velvetleaf (ABUTH) = test: Nicosulforon experiment, plant fresh weight; conditions: nicosulforon 200 g of ai/ha, adjuvant 0.25%, 14 DAT; untreated = 100
Protocol: as §2

Solanum nigrum L. = test: 14C-glyphosate foliar uptake by scintillation measurement; conditions: 14C-glyphosate-IPA 20 mM (aq), adjuvant 0.25%
Protocol: Determination of the foliar uptake of glyphosate with addition of the copolymers described
^14C-Glyphosate Experiment
^14C-glyphosate-IPA at a concentration of 20 mM (aq) (corresponds to 665 g of ae/ha at a spray volume of 200 l/ha) was treated with 0.25% of the copolymers described. Using this mixture, the foliar uptake into the genus Solanum nigrum L. was determined by means of scintillation measurement. The effect of the copolymer on the uptake of the active ingredient via the leaf surface (foliar uptake) is described in the table which follows: […]

Compound: CC(C)N1C(=O)c2ccccc2NS1(=O)=O [sodium salt of bentazone]
- Fluorescence Fpc CHEAL [1]: 56
- Florescence Fpc POLCO (wild buckwheat (POLCO)): 46

Compound: COc1cc(OC)nc(NC(=O)NS(=O)(=O)c2ncccc2C(=O)N(C)C)n1 [nicosulforon]
- FW (fresh weight) STEME (common chickweed (STEME)): 63 g
- FW (fresh weight) CHEAL [2]: 88 g
- FW (fresh weight) ABUTH (velvetleaf (ABUTH)): 90 g

Compound: O=C(O)CNCP(=O)(O)O [glyphosate, N-phosphonomethylglycine]
- Uptake (% of the amount of glyphosate applied) (Solanum nigrum L.): 48 % of the amount of glyphosate applied
